The record followed here is patent publication US8946478B2, “Benzamide derivative with anticancer activity and preparation method and use thereof” (Zhejiang Hisun Pharmaceutical Co., Ltd., priority 2010, dated 2015).

Holding throughout (assay): In vitro SRB tumor cell growth inhibition (GI50)
What all share (assay type): cell-based

Experiment [1] has as its system human breast cancer cell strain MCF-7. Conditions: Homo sapiens, MCF7, 48 h, MCF-7 cells.
Experiment [2] has as its system human breast cancer cell strain MDA-MB435. Conditions: Homo sapiens, MDA-MB-435, 48 h, MDA-MB435 cells.
Experiment [3] concerns human colon cancer cell strain Colo205. Conditions: Colo 205 cells, 48 h.
Experiment [4] has as its system human colon cancer cell strain HCT-116. As to conditions: Homo sapiens, HCT-116, 48 h, HCT-116 cells.
Another experiment has as its system human hepatoma HepG 2. Conditions: HepG2, HepG 2 cells, 48 h.
For the next experiment, the system named is human leukemia HL-60. As to conditions: Homo sapiens, HL-60, 48 h, HL-60 cells.
The next experiment concerns human leukemia K562. As to conditions: Homo sapiens, K562, 48 h, K562 cells.
In experiment [5] the test system is human lung cancer cell strain 95D. As to conditions: Homo sapiens, 95-D, 48 h, 95D cells.
In experiment [6] the test system is human lung cancer cell strain A549. Conditions: A549 cells, 48 h. The method, boiled down: (§1)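 A549 and PANC-1 seeded at 10000 cells/well, OVCAR-5 and NCI460 at 5000 cells/well in DMEM/10% FBS, pre-incubated 24 h at 37 °C. Compounds added for 48 h, triplicate; cells TCA-fixed, SRB-stained, absorbance read at 515 nm with 690 nm blank. GI50 from dose-response curve, time-zero wells included.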

In experiment [7] the test system is human lung cancer cell strain NCI-460. Conditions: Homo sapiens, NCI-460, 48 h, NCI-460 cells. The procedure, abridged: as §1
Experiment [8] has as its system human ovarian cancer cell strain HO8910. Conditions: HO-8910, HO8910 cells, 48 h.
In experiment [9] the test system is human ovarian cancer cell strain OVCAR-5. As to conditions: OVCAR-5 cells, 48 h. The procedure, abridged: as §1
The subject of experiment [10] is human ovarian cancer cell strain OVCAR-8. As to conditions: Homo sapiens, OVCAR-8, 48 h, OVCAR-8 cells.
For experiment [11], the system named is human ovarian cancer cell strain SKOV-3. Conditions: SK-OV-3, SKOV-3 cells, 48 h.
The subject of experiment [12] is human pancreatic cancer PANC-1. Conditions: Homo sapiens, PANC-1, 48 h, PANC-1 cells. The method, boiled down: as §1
The subject of experiment [13] is human prostate cancer BXPC-3. Conditions: BXPC-3 cells, 48 h.
For experiment [14], the system named is human prostate cancer DU145. Conditions: Homo sapiens, DU-145, 48 h, DU145 cells.
Experiment [15] relates to human uterine cancer Hela. As to conditions: Homo sapiens, HeLa, 48 h, Hela cells.

The structures appear in SMILES notation.

Consider `NC(=O)c1ccc(I)c([N+](=O)[O-])c1` [BSI-201, 4-iodo-3-nitrobenzamide, reference compound], for which the GI50 is 40.1 µM in [1]; 64.4 µM in experiment [2]; 76 µM in experiment [3]; 64.7 µM in experiment [4]; greater than 100 µM with human hepatoma HepG 2; 74.1 µM with human leukemia HL-60. Also, the GI50 with human leukemia K562 was 44.6 µM; in experiment [5] it was 53.8 µM; in experiment [6], 105 µM; in experiment [7], greater than 100 µM; in [8], 72.6 µM; in experiment [9], 61.1 µM. For the same compound, the GI50 in experiment [10] is 103 µM; in experiment [11], 38.5 µM; in [12], 25.5 µM; in experiment [13], 105 µM; in experiment [14] it was 86.6 µM; in [15], 64.7 µM.
With `C#Cc1ccc(C(N)=O)cc1[N+](=O)[O-]` [Compound I-1, 4-ethynyl-3-nitrobenzamide], the GI50 in experiment [1] stood at 2.47 µM; in experiment [2], 2.05 µM; in [3], 4.84 µM; in [4], 1.9 µM; in the experiment on human hepatoma HepG 2, 8.73 µM; in the experiment on human leukemia HL-60, 2.11 µM. Besides, the GI50 with human leukemia K562 came to 3.02 µM; in experiment [5] it was 1.88 µM; in [6], 4.56 µM; in experiment [7], 10.9 µM; in [8] it was 1.47 µM; in experiment [9], 4.29 µM. For the same compound, the GI50 came to 11.7 µM in experiment [10]; 3.17 µM in experiment [11]; 7.41 µM in experiment [12]; 4.68 µM in experiment [13]; 4.78 µM in experiment [14]; 5.28 µM in [15].
